Reference: patent US20030140370A1, “Fungal glyoxal oxidases” (priority 2001, published 2003)

molecular target: glyoxal oxidase (Glo1) (Ustilago maydis, UniProt Q7Z868); experiment: Enzyme assay for identifying glyoxal oxidase inhibitors (Amplex Red/HRP coupled, cells of overproducer strain Bay-CA95); format: biochemical; settings: negative decimal logarithm of molar IC50; intact Bay-CA95 cells, 10 mM methylglyoxal, 9 hours at 30° C., fluorescence 550/595 nm; read-out: pI50 (converted)
Excerpt: The activity of glyoxal oxidase in vitro and in vivo, for example in the U. maydis cells according to the invention produced as described in Example 3 (CA95) can be detected on the basis of the conversion of the substrate methylglyoxal, exploiting the following reaction:
Methylglyoxal+O2→pyruvate+H2O2
H2O2+10-acetyl-3,7-dihydroxyphenoxazine (Amplex Red®)→resorufin+H2O
Amplex Red® reacts with H2O2 in a 1:1 stoichiometry, giving rise to resorufin (7-hydroxy-3H-phenoxazin-3-one sodium salt). The fluorescence is measured at an excitation wavelength of 550 nm and an emission of 595 nm. A substrate concentration of 10 mM methylglyoxal was employed in the assay. When using intact cells, it must be taken into consideration that the glyoxal oxidase concentration is low and that the reaction must therefore be allowed to proceed longer. Thus, for example, very good readings were obtained after incubation for 9 hours.
The enzyme assay was carried out in a total volume of 50 μl. To this end, the substances to be assayed were introduced in 10 μl substrate solution (50 mM methylglyoxal, 2.5% (v/v) DMSO) into a 384 microtitre plate. The KM value of glyoxal oxidase for methylglyoxal had previously been determined (cf. FIG. 14). The concentration of the candidate compounds to be tested for an inhibitory effect was such that the final concentration of the substances in the assay carried out was 10 μM. In the next step, 20 μl of cell solultion (cells of the overproducer strain Bay-CA95 (OD600=5); 0.2 M 2,2-dimethyl succinate buffer, pH 5, cooled at 4° C.) were added. 20 μl of detection solution (125 μM Amplex Red™ reagent (20 mM stock solution in 100% DMSO), 2.5 U/ml horseradish peroxidase, 62.5 mM sodium phosphate buffer, pH 7.4) were added to the mixture. The mixture was incubated for 9 hours at 30° C. Then, the increase in fluorescence was measured at λ=550 nm (absorption) and λ=595 nm (emission), the results of a measurement in the presence of Bay-CA95 cells being compared with the results of a measurement in the presence of the wild-type U. maydis 518 cells (see also FIG. 15). The substances used in the assay were present in the following final concentrations: c(2,2-dimethyl succinate/NaOH)=40 mM, c(Amplex Red® (Molecular Probes))=50 μM, c(horseradish peroxidase)=0.001 U/μl, c(methylglyoxal)=10 mM, OD (Bay-CA95)=1, c(sodium phosphate buffer)=25 mM. The inhibitory effect of a candidate compound could be seen from the decrease in relative fluorescence, and inhibitors were identified. […] Table II also gives pI50 values which have been determined for the individual compounds. The pI50 value is the negative decimal logarithm of what is known as the IC50 value, which indicates the molar concentration of a substance which leads to 50% inhibition of the enzyme. For example, a pI50 value of 8 corresponds to half the maximum inhibition of the enzyme at a concentration of 10 nM.

glyoxal oxidase (Glo1), sequence (Q7Z868 entry or part of it): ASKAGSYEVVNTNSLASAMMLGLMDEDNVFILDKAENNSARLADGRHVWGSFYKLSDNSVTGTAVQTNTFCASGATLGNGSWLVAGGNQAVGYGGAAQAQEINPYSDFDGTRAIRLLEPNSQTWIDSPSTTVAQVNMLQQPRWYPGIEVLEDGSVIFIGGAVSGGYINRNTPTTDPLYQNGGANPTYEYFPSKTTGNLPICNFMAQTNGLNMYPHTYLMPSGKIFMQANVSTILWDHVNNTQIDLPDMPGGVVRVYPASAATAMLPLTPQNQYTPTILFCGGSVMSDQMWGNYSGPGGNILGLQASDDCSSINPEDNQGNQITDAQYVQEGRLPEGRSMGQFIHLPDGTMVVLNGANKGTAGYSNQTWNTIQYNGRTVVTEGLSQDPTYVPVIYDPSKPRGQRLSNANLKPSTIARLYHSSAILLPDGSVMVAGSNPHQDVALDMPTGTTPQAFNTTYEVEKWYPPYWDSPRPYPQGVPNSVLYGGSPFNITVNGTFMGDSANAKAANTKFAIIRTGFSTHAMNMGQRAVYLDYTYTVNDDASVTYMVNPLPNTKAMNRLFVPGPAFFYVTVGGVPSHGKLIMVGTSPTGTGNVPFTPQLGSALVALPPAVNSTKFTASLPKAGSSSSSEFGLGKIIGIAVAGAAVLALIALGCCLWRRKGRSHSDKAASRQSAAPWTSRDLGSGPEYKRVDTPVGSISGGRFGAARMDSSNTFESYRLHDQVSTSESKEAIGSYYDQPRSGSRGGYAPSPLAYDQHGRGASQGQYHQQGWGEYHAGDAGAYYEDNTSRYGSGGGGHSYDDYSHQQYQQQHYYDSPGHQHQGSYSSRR

Structure (SMILES)	IC50 [µM]
CCOc1ccc(NCc2ccccc2O)cc1 [Example 2]	4.07
Nc1ccc(Oc2ccc(N)cc2)cc1 [Example 3]	5.62
C[Si](C)(C)O[Si](C)(CCCNC(=O)/C=C\c1cc(OC(O)C(O)C(O)C(O)CO)c(O)cc1O)O[Si](C)(C)C (stereo not drawn) [Example 4]	3.8
COc1ccc(C(=O)Nc2ccccc2)cc1N [Example 1]	11
COc1ccc(NCc2ccccc2O)cc1 [Example 5]	3.98

system: Venturia inaequalis; experiment: Venturia inaequalis (apple scab) protective test on young plants; format: in vivo; settings: protective action, concentration of 250 ppm; 0% = control, 100% = no disease observed
Protocol: The antifungal action of the compounds (protective action) was tested, inter alia, on Venturia inaequalis as an example. This fungus causes what is known as apple scab, which leads to black and green mottled leaves in pomaceous fruit trees. The lesions enlarge and coalesce. Leaves which are severely infested die, which may lead to the trees losing all their leaves in summer. The infection also has an adverse effect on fruit set. Scab on fruits manifests itself in grey lesions on the skin, with suberification and deformed fruits.
To prepare a suitable preparation of active compound, 1 part by weight of active compound is mixed with, for example, 24.5 parts by weight of acetone and 24.5 parts by weight of dimethylformamide and 1.0 part by weight of alkylaryl polyglycol ether as emulsifier, and the concentrate is diluted with water to the desired concentration.
To test for protective activity, young plants are sprayed with the preparation of the active compound at the application rate stated. After the spray coating has dried on, the plants are inoculated with an aqueous conidial suspension of the apple scab pathogen Venturia inaequalis and then remain in an incubation cabinet for 1 day at approximately 20° C. and 100% relative atmospheric humidity. […]
1 to 12 days post-inoculation, the test is evaluated. […]

Structure (SMILES)	efficacy [%]
C[Si](C)(C)O[Si](C)(CCCNC(=O)/C=C\c1cc(OC(O)C(O)C(O)C(O)CO)c(O)cc1O)O[Si](C)(C)C (stereo not drawn) [Example 4]	45
